From patent US8952024B2, “Herbicidal pyrimidone derivatives” (E I du Pont de Nemours and Company, priority 2009, dated 2015)

Columns and labels:
Experiment in all cases: Test D pre-/postemergence plant response
Assay type in all cases: in vivo
[1] = tested on: field bindweed (Convolvulus arvensis)
Excerpt: (§1) Seeds of plant species selected from bermudagrass (Cynodon dactylon), Surinam grass (Brachiaria decumbens), large crabgrass (Digitaria sanguinalis), green foxtail (Setaria viridis), goosegrass (Eleusine indica), johnsongrass (Sorghum halepense), kochia (Kochia scoparia), morningglory (pitted morningglory, Ipomoea lacunosa), nutsedge (purple nutsedge, Cyperus rotundus), ragweed (common ragweed, Ambrosia elatior), black mustard (Brassica nigra), guineagrass (Panicum maximum), dallisgrass (Paspalum dilatatum), barnyardgrass (Echinochloa crus-galli), sandbur (southern sandbur, Cenchrus echinatus), sowthistle (common sowthistle, Sonchus oleraceous), prickly sida (Sida spinosa), Italian ryegrass (Lolium multiflorum), purslane (common purslane, Portulaca oleracea), signalgrass (broadleaf signalgrass, Brachiaria platyphylla), groundsel (common groundsel, Senecio vulgaris), chickweed (common chickweed, Stellaria media), dayflower (Virginia (VA) dayflower, Commelina virginica), bluegrass (annual bluegrass, Poa annua), naked crabgrass (Digitaria nuda), itchgrass (Rottboellia cochinchinensis), quackgrass (Elytrigia repens), field bindweed (Convolvulus arvensis), spanishneedles (Bidens bipinnata), mallow (common mallow, Malva sylvestris) and Russian thistle (Salsola kali), were planted into a blend of loam soil and sand and treated preemergence with test chemicals formulated in a non-phytotoxic solvent mixture which included a surfactant. At the same time, plants from these weed species were treated with postemergence applications of the test chemicals formulated in the same manner. Plants ranged in height from 2 to 18 cm (1- to 4-leaf stage) for postemergence treatments.
(§2) Treated plants and controls were maintained in a greenhouse for 14 to 21 days, after which time all species were visually evaluated and compared to controls. Plant response ratings, summarized in Table D, are based on a scale of 0 to 100 where 0 is no effect and 100 is complete control. A dash (-) response means no test result.

[2] = tested on: prickly sida (Sida spinosa)
Excerpt: as §1, §2

[3] = tested on: sandbur (southern sandbur, Cenchrus echinatus)
Excerpt: as §1, §2

[4] = tested on: Surinam grass (Brachiaria decumbens)
Excerpt: as §1, §2

[5] = tested on: naked crabgrass (Digitaria nuda)
Excerpt: as §1, §2

[6] = tested on: large crabgrass (Digitaria sanguinalis)
Excerpt: as §1, §2

[7] = tested on: morningglory (pitted morningglory, Ipomoea lacunosa)
Excerpt: as §1, §2

[8] = tested on: chickweed (common chickweed, Stellaria media); settings: Postemergence
Excerpt: as §1, §2

[9] = tested on: dayflower (Virginia (VA) dayflower, Commelina virginica)
Excerpt: as §1, §2

kochia (Kochia scoparia) = tested on: kochia (Kochia scoparia)
Excerpt: as §1, §2

[10] = Postemergence, 16 g ai/ha, scale 0 to 100
[11] = Postemergence, 31 g ai/ha, scale 0 to 100
[12] = Postemergence, 125 g ai/ha, scale 0 to 100 (0 no effect, 100 complete control)
[13] = Postemergence, 62 g ai/ha, scale 0 to 100 (0 no effect, 100 complete control)
[14] = Preemergence, 16 g ai/ha, scale 0 to 100, 0 no effect, 100 complete control
[15] = Preemergence, 31 g ai/ha, scale 0 to 100 (0 no effect, 100 complete control)
[16] = Preemergence, 62 g ai/ha, scale 0 to 100
[17] = Preemergence, 125 g ai/ha, scale 0 to 100

O=C1CCCC(O)=C1C(=O)c1cnc(C2CC2)n(-c2ccccc2)c1=O [Compound 87]
Plant response rating, Field Bindweed [1, 10]: 0
Plant response rating, Field Bindweed [1, 11]: 15
Plant response rating, Field Bindweed [1, 12]: 40
Plant response rating, Field Bindweed [1, 13]: 25
Plant response rating, Field Bindweed [1, 14]: 0
Plant response rating, Field Bindweed [1, 15]: 0
Plant response rating, Field Bindweed [1, 16]: 40
Plant response rating, Field Bindweed [1, 17]: 70
Plant response rating, Prickly Sida [2, 10]: 70
Plant response rating, Prickly Sida [2, 11]: 80
Plant response rating, Prickly Sida [2, 12]: 95
Plant response rating, Prickly Sida [2, 13]: 80
Plant response rating, Prickly Sida [2, 14]: 50
Plant response rating, Prickly Sida [2, 15]: 60
Plant response rating, Prickly Sida [2, 16]: 100
Plant response rating, Prickly Sida [2, 17]: 100
Plant response rating, Sandbur [3, 10]: 5
Plant response rating, Sandbur [3, 11]: 5
Plant response rating, Sandbur [3, 12]: 35
Plant response rating, Sandbur [3, 13]: 20
Plant response rating, Sandbur [3, 14]: 0
Plant response rating, Sandbur [3, 15]: 25
Plant response rating, Sandbur [3, 17]: 95
Plant response rating, Surinam Grass [4, 10]: 30
Plant response rating, Surinam Grass [4, 11]: 40
Plant response rating, Surinam Grass [4, 12]: 40
Plant response rating, Surinam Grass [4, 13]: 40
Plant response rating, Surinam Grass [4, 14]: 0
Plant response rating, Surinam Grass [4, 15]: 50
Plant response rating, Surinam Grass [4, 17]: 100
Plant response rating, Crabgrass, Naked [5, 10]: 50
Plant response rating, Crabgrass, Naked [5, 11]: 60
Plant response rating, Crabgrass, Naked [5, 12]: 75
Plant response rating, Crabgrass, Naked [5, 13]: 70
Plant response rating, Crabgrass, Naked [5, 15]: 80
Plant response rating, Crabgrass, Naked [5, 16]: 100
Plant response rating, Crabgrass, Naked [5, 17]: 100
Plant response rating, Crabgrass, Large [6, 10]: 40
Plant response rating, Crabgrass, Large [6, 11]: 65
Plant response rating, Crabgrass, Large [6, 12]: 75
Plant response rating, Crabgrass, Large [6, 13]: 70
Plant response rating, Crabgrass, Large [6, 14]: 50
Plant response rating, Crabgrass, Large [6, 15]: 75
Plant response rating, Crabgrass, Large [6, 16]: 95
Plant response rating, Crabgrass, Large [6, 17]: 100
Plant response rating, Morningglory [7, 10]: 40
Plant response rating, Morningglory [7, 11]: 40
Plant response rating, Morningglory [7, 12]: 50
Plant response rating, Morningglory [7, 13]: 40
Plant response rating, Morningglory [7, 14]: 10
Plant response rating, Morningglory [7, 16]: 80
Plant response rating, Morningglory [7, 17]: 95
Plant response rating, Chickweed ([8]; 16 g ai/ha, scale 0 to 100): 75
Plant response rating, Chickweed ([8]; 31 g ai/ha, scale 0 to 100): 75
Plant response rating, Chickweed ([8]; 125 g ai/ha, scale 0 to 100 (0 no effect, 100 complete control)): 100
Plant response rating, Chickweed ([8]; 62 g ai/ha, scale 0 to 100 (0 no effect, 100 complete control)): 75
Plant response rating, Dayflower, VA [9, 10]: 10
Plant response rating, Dayflower, VA [9, 11]: 35
Plant response rating, Dayflower, VA [9, 12]: 70
Plant response rating, Dayflower, VA [9, 13]: 60
Plant response rating, Dayflower, VA [9, 14]: 0
Plant response rating, Dayflower, VA [9, 15]: 0
Plant response rating, Dayflower, VA [9, 16]: 65
Plant response rating, Dayflower, VA [9, 17]: 65
Plant response rating, Kochia (kochia (Kochia scoparia); [10]): 25
Plant response rating, Kochia (kochia (Kochia scoparia); [11]): 35
Plant response rating, Kochia (kochia (Kochia scoparia); [12]): 60
Plant response rating, Kochia (kochia (Kochia scoparia); [13]): 35
Plant response rating, Kochia (kochia (Kochia scoparia); [14]): 65
Plant response rating, Kochia (kochia (Kochia scoparia); [15]): 98
Plant response rating, Kochia (kochia (Kochia scoparia); [16]): 100
Plant response rating, Kochia (kochia (Kochia scoparia); [17]): 100

O=C1CCCC(O)=C1C(=O)c1cnc(-c2cccnc2)n(-c2ccccc2)c1=O [Compound 113, 5-[(2-hydroxy-6-oxo-1-cyclohexen-1-yl)carbonyl]-3-phenyl-2-(3-pyridinyl)-4(3H)-pyrimidone]
Plant response rating, Field Bindweed [1, 10]: 50
Plant response rating, Field Bindweed [1, 11]: 65
Plant response rating, Field Bindweed [1, 13]: 65
Plant response rating, Field Bindweed [1, 14]: 0
Plant response rating, Field Bindweed [1, 15]: 20
Plant response rating, Field Bindweed [1, 16]: 65
Plant response rating, Field Bindweed [1, 17]: 90
Plant response rating, Prickly Sida [2, 10]: 50
Plant response rating, Prickly Sida [2, 11]: 60
Plant response rating, Prickly Sida [2, 12]: 70
Plant response rating, Prickly Sida [2, 13]: 70
Plant response rating, Prickly Sida [2, 14]: 0
Plant response rating, Prickly Sida [2, 15]: 35
Plant response rating, Prickly Sida [2, 16]: 70
Plant response rating, Prickly Sida [2, 17]: 90
Plant response rating, Sandbur [3, 10]: 5
Plant response rating, Sandbur [3, 11]: 10
Plant response rating, Sandbur [3, 12]: 60
Plant response rating, Sandbur [3, 13]: 60
Plant response rating, Sandbur [3, 14]: 0
Plant response rating, Sandbur [3, 15]: 0
Plant response rating, Sandbur [3, 17]: 90
Plant response rating, Surinam Grass [4, 10]: 60
Plant response rating, Surinam Grass [4, 11]: 75
Plant response rating, Surinam Grass [4, 13]: 80
Plant response rating, Surinam Grass [4, 15]: 40
Plant response rating, Surinam Grass [4, 17]: 95
Plant response rating, Crabgrass, Naked [5, 10]: 50
Plant response rating, Crabgrass, Naked [5, 11]: 65
Plant response rating, Crabgrass, Naked [5, 12]: 75
Plant response rating, Crabgrass, Naked [5, 13]: 70
Plant response rating, Crabgrass, Naked [5, 14]: 0
Plant response rating, Crabgrass, Naked [5, 15]: 0
Plant response rating, Crabgrass, Naked [5, 16]: 90
Plant response rating, Crabgrass, Naked [5, 17]: 100
Plant response rating, Crabgrass, Large [6, 10]: 60
Plant response rating, Crabgrass, Large [6, 11]: 60
Plant response rating, Crabgrass, Large [6, 12]: 70
Plant response rating, Crabgrass, Large [6, 13]: 70
Plant response rating, Crabgrass, Large [6, 14]: 20
Plant response rating, Crabgrass, Large [6, 15]: 30
Plant response rating, Crabgrass, Large [6, 16]: 95
Plant response rating, Crabgrass, Large [6, 17]: 95
Plant response rating, Morningglory [7, 10]: 50
Plant response rating, Morningglory [7, 11]: 60
Plant response rating, Morningglory [7, 12]: 90
Plant response rating, Morningglory [7, 13]: 90
Plant response rating, Morningglory [7, 14]: 60
Plant response rating, Morningglory [7, 15]: 60
Plant response rating, Morningglory [7, 16]: 60
Plant response rating, Morningglory [7, 17]: 90
Plant response rating, Chickweed ([8]; 31 g ai/ha, scale 0 to 100): 70
Plant response rating, Dayflower, VA [9, 10]: 20
Plant response rating, Dayflower, VA [9, 11]: 40
Plant response rating, Dayflower, VA [9, 12]: 60
Plant response rating, Dayflower, VA [9, 13]: 60
Plant response rating, Dayflower, VA [9, 14]: 50
Plant response rating, Dayflower, VA [9, 15]: 50
Plant response rating, Dayflower, VA [9, 16]: 50
Plant response rating, Dayflower, VA [9, 17]: 65
Plant response rating, Kochia (kochia (Kochia scoparia); [10]): 25
Plant response rating, Kochia (kochia (Kochia scoparia); [11]): 40
Plant response rating, Kochia (kochia (Kochia scoparia); [12]): 50
Plant response rating, Kochia (kochia (Kochia scoparia); [13]): 50
Plant response rating, Kochia (kochia (Kochia scoparia); [15]): 70
Plant response rating, Kochia (kochia (Kochia scoparia); [16]): 100
Plant response rating, Kochia (kochia (Kochia scoparia); [17]): 100
